Bridge positions count the residues as written; N and C are the ends. Square brackets hold non-standard residues; d marks the D form. Triazole bridges read from a SMILES are 1,4-linked. Ends that are not written are not given here. I, II: the chains in the order shown. * marks the point of attachment. 5FAM = O=C1OC2(c3ccc(O)cc3Oc3cc(O)ccc32)c2ccc(C(=O)*)cc21; Lys(N3) = [N-]=[N+]=NCCCC[C@H](N)C(=O)O; Pra = C#CC[C@H](N)C(=O)O
Tested on: bEnd.3/MSC co-culture
Test: Transcytosis assay, transwell in vitro BBB model with dex-TexR correction (cPapp)
Assay type: in vitro ADME, mouse
Conditions: apical to basolateral; for fold increase in permeability (cPapp) relative to Tf-A647: bEnd.3/MSC co-culture on polyester transwell inserts (0.4 µm pore), 0.5 µM vehicle with 5 µM dex-TexR (3000 Da), DMEM without FCS after 1 h serum starvation, three inserts with and without culture, paracellular contribution subtracted; for fold increase in permeability (cPapp) relative to Tf-A647 / cPapp at 4 °C: fluorescence read-out; for cPapp at 4 °C: FAM-labelled vehicle co-incubated with dex-TexR, corrected for paracellular diffusion
Text: To study transcytosis potential of the vehicles in vitro we optimised a BBB model using a 3D-transwell format. […] This is similar to results shown by others.[16] Immunostaining for TJ protein ZO-1 in the bEnd.3 cell line confirmed its presence and trafficking towards the cell junctions (Fig. S7 ^†).
It seemed plausible that a similar sized marker (such as TexasRed labelled dextran (dex-TexR; 3000 g mol^–1)) that is incapable of AMT or RMT uptake could serve as an internal standard to quantify paracellular contribution of the vehicles. As exemplified in Fig. 4A, experiments are performed in parallel with probes (both dex-TexR and FAM-PPII vehicle or Tf-A647) fed to insets containing either the cell monolayer (PSt) or filter alone (PSf). The corresponding Papp for dex-TexR in both scenarios is first calculated and the extent in which movement is reduced by presence of the monolayer (defined here as the transport ratio (TR)) is used to determine the expected paracellular diffusion rate of the individual vehicles. We employed Tf-A647 and a similarly sized TexasRed labelled dextran (dex-TexR; 70 000 g mol^–1) as a positive control for transcytosis. […] When incubated in the presence of cells, dex-TexR was detected in the basolateral compartment indicating background paracellular flux. However, Tf-A647 was cleared at a faster rate in comparison, confirming transcytosis of the molecule.
Fig. 4 Modified workflow and results for determining the cPapp of a macromolecule, accounting for contributions made by paracellular diffusion across an in vitro barrier. […] (B–C) Clearance plots obtained by incubation of Tf-A647 or dex-TexR with filters alone (B; PSf) or with cells (C; PSt). […] Division of PSt/PSf for dextran generates the transport ratio (TR). Expected paracellular contribution of the vehicle is obtained by multiplying TR by the Papp of the compound of interest without cells. cPapp values are obtained by subtracting this value from Papp of compound with cells. Key: red = dex-TexR; blue = Tf-A647; dashed lines = filter insert only; solid lines = transwell culture (D) cPapp values for delivery vehicles screened in the transcytosis assay.
(3 × 1 mL), and trypsinisation was conducted using a solution of 0.25 % (w/v) trypsin-EDTA solution (0.5 mL, 3 min, 37 °C, 5 % CO2 incubation), unless otherwise specified. When required, a Scan Speed 1580R centrifuge (Labmode) was used to pellet cell suspensions. All tissue culture work was performed in sterilised Corning well plates, and cell based assays used DMEM media (ThermoFisher, #31053028) without FCS and phenol red, unless otherwise specified. bEND.3 cells were a gift from Rachael Brown (Kings College London), while MSC cells were a gift from the Battaglia group (University College London).
Cells were maintained in high glucose Dulbecco’s Modified Eagle’s Medium (DMEM) (ATCC #30-2002) supplemented with 10 % FCS. Cells were sub-cultured routinely using trypsin solution once 100 % confluence was achieved. For uptake and transcytosis studies, cells under passage number 30 were used. After this time, these cells may begin to lose their barr ier functionality, as identified from an extensive study performed by Brown et al.1 Mesenchymal stem cells (MSC)
MSC, as surrogates for pericytes, were maintained in DMEM/F12 medium containing GlutaMAX and L-glutamine (2 mM) (ThermoFisher, #10565-018), supplemented with 10 % FCS and 5 μg/mL Gentamicin (SIGMA, G1397). Cultures were sub -cultured routinely using trypsin solution once 70 -80 % confluence was achieved.
For all transcytosis assays, polyester filter inserts (Corning, #3460; 0.4 µm pore, 12 mm diameter, 10 µm thick) were used in 12-well cell culture plates. Optimum media volumes were calculated to be 950 µL and 475 µL for apical and basolateral chambers respectively. Both chambers were coated with rat tail collagen (5 µg/cm2) for 2 h at room temperature prior to use. bEND.3 cells were seeded at a density of 2 × 10^4 cells/well onto insets, and grown to […]

## CC[C@H](C)[C@H](NC(=O)[C@H](C)NC(=O)[C@@H](N)Cc1c[nH]cn1)C(=O)N[C@@H](Cc1ccc(O)cc1)C(=O)N1CCC[C@H]1C(=O)N[C@@H](CCCNC(=N)N)C(=O)N[C@@H](Cc1c[nH]cn1)C(=O)NCCCC[C@H](NC(=O)[C@H](CCCNC(=N)N)NC(=O)[C@@H](NC(=O)[C@@H]1CCCN1C(=O)[C@@H]1CCCN1C(=O)[C@@H]1CCCN1C(=O)[C@H](CC(C)C)NC(=O)[C@H](CCCNC(=N)N)NC(=O)[C@@H](NC(=O)[C@@H]1CCCN1C(=O)[C@@H]1CCCN1C(=O)[C@@H]1CCCN1C(=O)[C@H](Cc1cn(CCCC[C@H](N)C(=O)N[C@H](C(=O)N[C@@H](Cc2ccccc2)C(=O)N[C@@H](Cc2ccccc2)C(=O)N[C@@H](Cc2ccc(O)cc2)C(=O)NCC(=O)NCC(=O)N[C@@H](CO)C(=O)N[C@@H](CCCNC(=N)N)C(=O)NCC(=O)N[C@@H](CCCCN)C(=O)N[C@@H](CCCNC(=N)N)C(=O)N[C@@H](CC(N)=O)C(=O)N[C@@H](CC(N)=O)C(=O)N[C@@H](Cc2ccccc2)C(=O)N[C@@H](CCCCN)C(=O)N[C@H](C(=O)N[C@@H](CCC(=O)O)C(=O)N[C@@H](CCC(=O)O)C(=O)N[C@@H](Cc2ccc(O)cc2)C(N)=O)[C@@H](C)O)[C@@H](C)O)nn1)NC(=O)[C@H](CCCNC(=N)N)NC(=O)[C@@H](NC(=O)c1ccc2c(c1)C(=O)OC21c2ccc(O)cc2Oc2cc(O)ccc21)C(C)C)C(C)C)C(C)C)C(=O)N1CCC[C@H]1C(=O)N1CCC[C@H]1C(=O)N1CCC[C@H]1C(N)=O [PPII(L3X;L15K)TfRL2(K);APep2(X)]
37 °C
  fold increase in permeability (cPapp) relative to Tf-A647: 1.8 fold

## CC[C@H](C)[C@H](NC(=O)[C@H](C)NC(=O)[C@H](Cc1c[nH]cn1)NC(=O)[C@@H](N)CCCCn1cc(C[C@H](NC(=O)[C@@H](NC(=O)[C@@H]2CCCN2C(=O)[C@@H]2CCCN2C(=O)[C@@H]2CCCN2C(=O)[C@H](CC(C)C)NC(=O)[C@H](CCCNC(=N)N)NC(=O)[C@@H](NC(=O)c2ccc3c(c2)C(=O)OC32c3ccc(O)cc3Oc3cc(O)ccc32)C(C)C)C(C)C)C(=O)N[C@@H](CC(C)C)C(=O)N2CCC[C@H]2C(=O)N2CCC[C@H]2C(=O)N2CCC[C@H]2C(=O)N[C@H](C(=O)N[C@@H](CCCNC(=N)N)C(=O)N[C@@H](CC(C)C)C(=O)N2CCC[C@H]2C(=O)N2CCC[C@H]2C(=O)N2CCC[C@H]2C(N)=O)C(C)C)nn1)C(=O)N[C@@H](Cc1ccc(O)cc1)C(=O)N1CCC[C@H]1C(=O)N[C@@H](CCCNC(=N)N)C(=O)N[C@@H](Cc1c[nH]cn1)C(N)=O [PPII(R8X)TfRL2]
37 °C
  fold increase in permeability (cPapp) relative to Tf-A647: 1.4 fold
bEnd.3/MSC transwell
  cPapp at 4 °C: -0.085 cm/min x 10^-5

## CC(C)C[C@H](NC(=O)[C@H](CCCNC(=N)N)NC(=O)[C@@H](NC(=O)[C@@H]1CCCN1C(=O)[C@@H]1CCCN1C(=O)[C@@H]1CCCN1C(=O)[C@H](CC(C)C)NC(=O)[C@H](Cc1cn(CCCC[C@H](N)C(=O)N[C@H](C(=O)N[C@@H](Cc2ccccc2)C(=O)N[C@@H](Cc2ccccc2)C(=O)N[C@@H](Cc2ccc(O)cc2)C(=O)NCC(=O)NCC(=O)N[C@@H](CO)C(=O)N[C@@H](CCCNC(=N)N)C(=O)NCC(=O)N[C@@H](CCCCN)C(=O)N[C@@H](CCCNC(=N)N)C(=O)N[C@@H](CC(N)=O)C(=O)N[C@@H](CC(N)=O)C(=O)N[C@@H](Cc2ccccc2)C(=O)N[C@@H](CCCCN)C(=O)N[C@H](C(=O)N[C@@H](CCC(=O)O)C(=O)N[C@@H](CCC(=O)O)C(=O)N[C@@H](Cc2ccc(O)cc2)C(N)=O)[C@@H](C)O)[C@@H](C)O)nn1)NC(=O)[C@@H](NC(=O)[C@@H]1CCCN1C(=O)[C@@H]1CCCN1C(=O)[C@@H]1CCCN1C(=O)[C@H](CC(C)C)NC(=O)[C@H](CCCNC(=N)N)NC(=O)[C@@H](NC(=O)c1ccc2c(c1)C(=O)OC21c2ccc(O)cc2Oc2cc(O)ccc21)C(C)C)C(C)C)C(C)C)C(=O)N1CCC[C@H]1C(=O)N1CCC[C@H]1C(=O)N1CCC[C@H]1C(N)=O [PPII(R8X)APep2]
37 °C
  fold increase in permeability (cPapp) relative to Tf-A647: 4.9 fold
bEnd.3/MSC transwell
  cPapp at 4 °C: -0.058 cm/min x 10^-5

## I: 5FAM-VR[Pra]PPPVRLPPP[Pra]RLPPP-NH2 / II: [Lys(N3)]THRPPMWSPVWP-NH2 / III: [Lys(N3)]THRPPMWSPVWP-NH2 (triazole I:3-III:1, I:13-II:1) [PPII(L3X;V13X)TfRL1]
37 °C
  fold increase in permeability (cPapp) relative to Tf-A647: 3.5 fold

## I: 5FAM-VR[Pra]PPPVRLPPPVR[Pra]PPP-NH2 / II: [Lys(N3)]THRPPMWSPVWP-NH2 / III: [Lys(N3)]THRPPMWSPVWP-NH2 (triazole I:3-III:1, I:15-II:1) [PPII(L3X;L15X)TfRL1]
37 °C
  fold increase in permeability (cPapp) relative to Tf-A647: 3.0 fold
bEnd.3/MSC transwell
  cPapp at 4 °C: -0.079 cm/min x 10^-5

## Tf-A647: human derived AlexaFluor 647-conjugated transferrin [reference compound]
bEnd.3/MSC transwell
  cPapp at 4 °C: 0.09 cm/min x 10^-5

## CC(C)C[C@H](NC(=O)[C@H](CCCNC(=N)N)NC(=O)[C@@H](NC(=O)[C@@H]1CCCN1C(=O)[C@@H]1CCCN1C(=O)[C@@H]1CCCN1C(=O)[C@H](Cc1cn(CCCC[C@H](N)C(=O)N[C@H](C(=O)N[C@@H](Cc2ccccc2)C(=O)N[C@@H](Cc2ccccc2)C(=O)N[C@@H](Cc2ccc(O)cc2)C(=O)NCC(=O)NCC(=O)N[C@@H](CO)C(=O)N[C@@H](CCCNC(=N)N)C(=O)NCC(=O)N[C@@H](CCCCN)C(=O)N[C@@H](CCCNC(=N)N)C(=O)N[C@@H](CC(N)=O)C(=O)N[C@@H](CC(N)=O)C(=O)N[C@@H](Cc2ccccc2)C(=O)N[C@@H](CCCCN)C(=O)N[C@H](C(=O)N[C@@H](CCC(=O)O)C(=O)N[C@@H](CCC(=O)O)C(=O)N[C@@H](Cc2ccc(O)cc2)C(N)=O)[C@@H](C)O)[C@@H](C)O)nn1)NC(=O)[C@H](CCCNC(=N)N)NC(=O)[C@@H](NC(=O)c1ccc2c(c1)C(=O)OC21c2ccc(O)cc2Oc2cc(O)ccc21)C(C)C)C(C)C)C(=O)N1CCC[C@H]1C(=O)N1CCC[C@H]1C(=O)N1CCC[C@H]1C(=O)N[C@H](C(=O)N[C@@H](CCCNC(=N)N)C(=O)N[C@@H](Cc1cn(CCCC[C@H](N)C(=O)N[C@H](C(=O)N[C@@H](Cc2ccccc2)C(=O)N[C@@H](Cc2ccccc2)C(=O)N[C@@H](Cc2ccc(O)cc2)C(=O)NCC(=O)NCC(=O)N[C@@H](CO)C(=O)N[C@@H](CCCNC(=N)N)C(=O)NCC(=O)N[C@@H](CCCCN)C(=O)N[C@@H](CCCNC(=N)N)C(=O)N[C@@H](CC(N)=O)C(=O)N[C@@H](CC(N)=O)C(=O)N[C@@H](Cc2ccccc2)C(=O)N[C@@H](CCCCN)C(=O)N[C@H](C(=O)N[C@@H](CCC(=O)O)C(=O)N[C@@H](CCC(=O)O)C(=O)N[C@@H](Cc2ccc(O)cc2)C(N)=O)[C@@H](C)O)[C@@H](C)O)nn1)C(=O)N1CCC[C@H]1C(=O)N1CCC[C@H]1C(=O)N1CCC[C@H]1C(N)=O)C(C)C [PPII(L3X;L15X)APep2]
bEnd.3/MSC transwell, 0.5 µM vehicle, 37 °C, cPapp
  transcytosis / permeability in BBB model, in words: limited transcytosis
